Source: patent US8097592B2, “Cocrystal of C-glycoside derivative and L-proline” (Astellas Pharma Inc., priority 2006, dated 2012)

Tests used:
[1] = Storage stability test (X-ray powder diffraction at various humidities and storage conditions); type: physicochemical
Method: (2) Humidity-Controlled Measurement “MAC Science […] 22 with a multifunctional humidity and temperature converter ([…] 235)” equipped with a copper X-ray tube was used under the conditions of a current of 350 mA, a tube voltage of 50 kV, a sampling width of 0.020°, a scanning rate of 3°/min, wavelength of 1.54056 Å, and measurement angles of diffraction range of (2θ): 5 to 40°. [Storage Stability Test] The measurement of X-ray powder diffraction was conducted continuously at 25° C. in a relative humidity range of 2 to 88%.

[2] = Moisture absorptivity test (weight change, VTI SGS-100); type: physicochemical; settings: for moisture absorption behaviour: interval 5%
Method: [Moisture Absorptivity Test] Weight change was measured by using of “VTI SGS-100” under the conditions of temperature=25° C., relative humidity range=5 to 95%, and relative humidity interval=5%. […] Further, while known compound A gives moisture absorption curves slightly different from each other depending upon the particle size and crystal habit, there was a case that 3.2% of water was desorbed and absorbed at 25° C. at 5 to 95% RH.

KK-A^y mice = assay: Test for confirming effect of antihyperglycemic action (blood sugar AUC 0 to 8 hours); type: in vivo; settings: non-fasted male KK-A^y mice, oral, 1 mg/10 mL suspension at 10 mL/kg
Method: (Test 2): [Test for Confirming Effect of Antihyperglycemic Action] Non-fasted KK-A^y mice (Clea Japan, Inc., male) were used as a test animal. The cocrystal of the present invention was suspended in an aqueous 0.5% methyl cellulose solution, in a concentration of 1 mg/10 mL. The body weight of each mouse was measured, and the suspension of the cocrystal of the present invention was forcibly administered orally in an amount of 10 mL/kg. Only the aqueous 0.5% methyl cellulose solution was administered to a control group. The number of mice per each group was 6. Blood samples were taken from the tail vein of each mouse right before administration and 1, 2, 4 and 8 hours after administration. Blood sugar value was measured using Glucose CII Test Wako (Wako Pure Chemical Industries, ltd.). From the blood sugar values of the cocrystal of the present invention-administered group at 0 to 8 hours were calculated an area under blood sugar value-time curve (AUC) according to the trapezoidal method; a ratio (%) of that area to the area of control group was determined; and it was taken as intensity of […] action.

[3] = molecular target: Human Na^+-Glucose Cotransporter (Human SGLT2) (Homo sapiens, UniProt P31639); assay: cell-based
Method: (Test 1) [Test for Confirming Effect of Inhibiting Activity of Human Na^+-Glucose Cotransporter (Human SGLT2)]
3) Measurement of Inhibition of methyl-α-D-glucopyranoside Intake
After removing the medium of a CHO cell which stably express the human SGLT2, a pretreatment buffer solution (buffer solution of pH 7.4 containing choline chloride (140 mM), potassium chloride (2 mM), calcium chloride (1 mM), magnesium chloride (1 mM), 2-[4-(2-hydroxyethyl)-1-piperazinyl]ethanesulfonic acid (10 mM), and tris(hydroxymethyl)aminomethane (5 mM)) was added in the amount of 100 μl per well, and incubated at 37° C. for 20 minutes.
11 μl of methyl-α-D-(U-14C) glucopyranoside
(manufactured by Amersham Pharmacia Biotech) was added to and mixed with 1,000 μl of a buffer solution for intake containing a cocrystal of the present invention (buffer solution of pH 7.4 containing sodium chloride (140 mM), potassium chloride (2 mM), calcium chloride (1 mM), magnesium chloride (1 mM), methyl-α-D-glucopyranoside (50 μM), 2-[4-(2-hydroxyethyl)-1-piperazinyl]ethanesulfonic acid (10 mM), and tris(hydroxymethyl)aminomethane (5 mM)) to prepare a buffer solution for intake. A buffer solution for intake without a test crystal was prepared for a control group. […]

[4] = 25° C., relative humidity range 5 to 95%

Chain of Human Na^+-Glucose Cotransporter (Human SGLT2) (P31639 whole entry): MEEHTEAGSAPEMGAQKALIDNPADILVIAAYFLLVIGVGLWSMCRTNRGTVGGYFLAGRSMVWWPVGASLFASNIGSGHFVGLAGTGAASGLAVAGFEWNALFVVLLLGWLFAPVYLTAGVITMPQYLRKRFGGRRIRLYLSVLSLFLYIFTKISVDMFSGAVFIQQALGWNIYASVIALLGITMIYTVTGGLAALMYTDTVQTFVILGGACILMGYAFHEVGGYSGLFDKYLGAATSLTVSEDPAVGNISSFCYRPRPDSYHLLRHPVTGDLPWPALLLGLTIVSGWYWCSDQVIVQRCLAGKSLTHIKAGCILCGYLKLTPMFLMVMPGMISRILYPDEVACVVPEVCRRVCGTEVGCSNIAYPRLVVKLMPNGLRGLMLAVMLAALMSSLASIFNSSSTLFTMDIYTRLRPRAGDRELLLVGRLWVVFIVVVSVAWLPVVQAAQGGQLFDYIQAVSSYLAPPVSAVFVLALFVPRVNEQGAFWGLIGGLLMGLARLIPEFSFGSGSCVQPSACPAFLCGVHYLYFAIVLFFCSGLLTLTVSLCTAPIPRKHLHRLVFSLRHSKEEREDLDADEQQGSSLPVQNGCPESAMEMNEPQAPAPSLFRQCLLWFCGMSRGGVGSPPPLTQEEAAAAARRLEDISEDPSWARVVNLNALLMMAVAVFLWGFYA

X-ray powder diffraction change associated with the change of relative humidity ([1]; 25° C., relative humidity range of 2 to 88%, continuous measurement) | physical stability of crystals of free form ([1]; crystals from various crystallization conditions, room temperature and low humidity) | water desorbed and absorbed ([2]; 25° C. at 5 to 95% RH) [%] | weight change ([2]; 25° C., from relative humidity of 25 to 35%) | physical change on standing ([1]; up to 7 days at room temperature (25° C.) at 63.5% RH to 84% RH) | physical stability in the moisture absorptivity test [2, 4] | moisture content ([2]; 25° C., total relative humidity range of 5 to 95%) [%] | IC50 [3] [nM] | SMILES | moisture absorption behaviour [2, 4] | physical stability on standing ([1]; 40° C./75% RH/open) | physical stability on standing ([1]; 60° C./uncontrolled humidity) | physical stability on standing ([1]; 80° C./uncontrolled humidity) | intensity of antihyperglycemic action (ratio of blood sugar AUC to control group) (KK-A^y mice)
shift of diffraction angle | physically unstable crystals | 3.2 | sharp increase in weight | – | – | – | – | OC[C@H]1O[C@@H](c2ccc(F)c(Cc3cc4ccccc4s3)c2)[C@H](O)[C@@H](O)[C@@H]1O [known compound A, (1S)-1,5-anhydro-1-[3-(1-benzothien-2-ylmethyl)-4-fluorophenyl]-D-glucitol, reference compound] | non-stoichiometric moisture absorption accompanied by physical change at low humidity | – | – | – | –
– | – | – | – | no physical change | stable physically | ≤ 0.7 | 5.8 | OC[C@H]1O[C@@H](c2ccc(F)c(Cc3cc4ccccc4s3)c2)[C@H](O)[C@@H](O)[C@@H]1O [cocrystal of the present invention, cocrystal of (1S)-1,5-anhydro-1-[3-(1-benzothien-2-ylmethyl)-4-fluorophenyl]-D-glucitol and L-proline] | no moisture absorptivity | physically stable for at least two months | physically stable for at least two months | physically stable for at least two months | strong antihypoglycemic action
